Measured values: patent US20240279190A1, “COMPOUNDS FOR MODULATING PLATELET-TYPE 12-(S)-LIPOXYGENASE AND METHODS OF USE FOR SAME” (The Regents of The University of California, priority 2021, published 2024)
Numbering of substitutions follows the chain as printed.

Experiments:
wt12-LOX = target: T1, wt12-LOX (Homo sapiens, UniProt P18054); test: UV-Vis-based IC50 assay, wild type 12-LOX; format: biochemical
T1 construct: 6xHis (N); made in house; insert in pFastBac1 shuttle vector (baculovirus system, own inference)
T1 sequence (P18054 1-663): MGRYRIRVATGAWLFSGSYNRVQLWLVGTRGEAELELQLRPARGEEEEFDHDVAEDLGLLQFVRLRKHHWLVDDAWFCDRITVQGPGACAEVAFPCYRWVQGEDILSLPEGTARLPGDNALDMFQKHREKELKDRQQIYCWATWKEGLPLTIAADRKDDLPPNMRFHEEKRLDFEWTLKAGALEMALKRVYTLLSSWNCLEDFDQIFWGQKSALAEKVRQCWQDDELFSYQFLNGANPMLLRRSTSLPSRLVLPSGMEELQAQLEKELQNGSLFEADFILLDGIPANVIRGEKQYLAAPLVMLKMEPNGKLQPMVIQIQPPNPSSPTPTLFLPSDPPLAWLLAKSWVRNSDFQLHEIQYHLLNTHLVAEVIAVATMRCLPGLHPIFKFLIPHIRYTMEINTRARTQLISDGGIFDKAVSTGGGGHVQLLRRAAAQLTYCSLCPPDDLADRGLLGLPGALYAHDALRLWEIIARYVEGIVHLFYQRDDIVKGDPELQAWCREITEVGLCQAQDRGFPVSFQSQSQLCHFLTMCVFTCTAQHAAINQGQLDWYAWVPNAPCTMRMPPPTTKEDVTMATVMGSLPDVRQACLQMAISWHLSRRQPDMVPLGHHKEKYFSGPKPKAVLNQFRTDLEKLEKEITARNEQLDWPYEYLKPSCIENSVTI
Experimental: (§1) The wild type 12-LOX (wt-12-LOX) enzyme and its mutants were expressed as fusion proteins, with an N-terminal 6×His tag, and were affinity purified by nickel-iminodiacetic acid agarose using FPLC (Biorad).
The percent inhibition was determined by comparing the enzyme rates of the control (DMSO solvent) and the inhibitor sample by following the formation of the conjugated diene product at 234 nm (ε=25,000 M^−1cm^−1). The reactions were initiated by adding 200 nM 15-LOX-2, 30 nM 12-LOX, 40 nM 15-LOX-1, or approximately 100-300 nM (total protein) of 5-LOX ammonium sulfate fraction to a cuvette with 2 mL reaction buffer, constantly stirred using a magnetic stir bar at room temperature (22° C.). Reaction buffers used for various LOX isozymes were as follows: 25 mM HEPES (pH 7.3), 0.3 mM CaCl2), 0.1 mM EDTA, 0.2 mM ATP, 0.01% Triton X-100, 10 μM AA for the crude, ammonium sulfate precipitated 5-LOX; and 25 mM HEPES (pH 7.5), 0.01% Triton X-100, 10 μM AA for 15-LOX-2, 15-LOX-1, and 12-LOX. The substrate concentration was quantitatively determined by allowing the enzymatic reaction to go to completion in the presence of soybean LOX-1. IC50 values were obtained by determining the % inhibition, relative to solvent vehicle only, at various inhibitor concentrations. […]

12-LOX mutant F352L = target: T2, 12-LOX mutant F352L (Homo sapiens, UniProt P18054, F352L); test: UV-Vis-based IC50 assay, F352L mutant; format: biochemical
T2 construct: 6xHis (N); made in house; pFastBac1 shuttle vector
T2 sequence (P18054 1-663 F352L): T1 sequence (P18054 1-663) with F352L
Text: Based on the ML355 binding mode predicted by the modeling, all residues within 5 Å of any atom of ML355 were selected for experimental mutagenesis. The selected residues were replaced with amino acids with either bulkier or smaller side chains in order to determine what specific interactions play a role in inhibitor binding. […] The numbering refers to the UniProt accession number P18054 sequence, with the N-terminal methionine assigned as amino acid number one. The primers for all mutants were designed using the online QuikChange Primer Design tool (http://www.genomics.agilent.com/primerDesignProgram.jsp) from Agilent Technologies (CA, USA). The mutations were introduced by using the QuikChange® II XL site-directed mutagenesis kit from Agilent, following the instructions in the protocol provided. […]
as §1
The percent inhibition was determined by comparing the enzyme rates of the control (DMSO solvent) and the inhibitor sample by following the formation of the conjugated diene product at 234 nm (ε=25,000 M^−1cm^−1). […] The substrate concentration was quantitatively determined by allowing the enzymatic reaction to go to completion in the presence of soybean LOX-1. […]

For `COc1cccc(CNc2ccc(S(=O)(=O)Nc3nc4c(ccc5ccccc54)s3)cc2)c1O` [Compound LOX-12-001, 4-((2-hydroxy-3-methoxybenzyl)amino)-N-(naphtho[1,2-d]thiazol-2-yl)benzenesulfonamide], the “fold increase in potency relative to ML355” value (wt12-LOX; against wt12-LOX) was 7.2 fold, the IC50 (wt12-LOX; wt12-LOX, 10 μM AA, 25 mM HEPES pH 7.5, 22° C.) was 50 ± 20 nM and the IC50 (12-LOX mutant F352L; F352L) was 490 ± 50 nM. The “fold increase in IC50 compared to wt12-LOX” value (12-LOX mutant F352L; F352L vs wt12-LOX) was 9.8 fold.
